US20260215432A1, “ANTIMICROBIAL CONJUGATED OLIGOELECTROLYTES AND METHODS THEREOF” (National University of Singapore, priority 2023, published 2026)
≈ marks a conversion by molar mass, not a printed value. Where “and” joins values, the source holds several entries; their conditions need not be identical. Identical values can stand only once. Like-named read-outs stand apart in the source and are kept apart here.

Legend:
[1] = system: M. abscesses (ATCC 19977); test: MIC against mycobacterium in Middlebrook 7H9 broth; type: cell-based, M. abscessus; conditions: for MIC: Mycobacteroides abscessus, ATCC19977
Protocol: We also examined non-tuberculous mycobacteria (NTM). These are opportunistic pathogens that are rising in clinical significance due to their increasing prevalence and treatment difficulty. The membrane of Mycobacterium is inherently a greater antibiotic permeability barrier due to its high lipid content relative to other pathogens and long-tailed mycolic acids that contributed to its high lipophilic character. The antimicrobial activity of the TPP analogues were also evaluated against Mycobacterium in Middlebrook 7H9 broth.

A. baumanii (ATCC 17978) = test: MIC, broth microdilution in CA-MHB; type: cell-based; conditions: for MIC AB: CA-MHB
Protocol: (§1) Antimicrobial activity was screened against a range of pathogens made up of clinically relevant ESKAPE pathogens by determination of the minimum inhibitory concentration (MIC) in cation-adjusted Mueller-Hinton broth (CA-MHB).
(§2) Minimum inhibitory concentrations of COEs were determined through a broth microdilution method in accordance with the Clinical and Laboratory Standards Institute (CLSI) guidelines M07-A10. A single bacterial colony was isolated from an overnight culture and grown to mid-log phase (OD600~0.8). Compounds were prepared as a stock solution in DMSO and diluted in a sterile flat-bottom 96-well plate in CA-MHB. Subsequent concentrations were prepared by two-fold dilution of the initial solution. An equivalent volume of bacteria was added to the compound to a final concentration of 5×10^5 cfu/mL. Plates were incubated at 37° C. for 16-18 hours, and read at OD600 using a microplate reader (TECAN Spark®). […] MIC values were determined for each compound in triplicate.

S. aureus (ATCC 29213) = test: MIC, broth microdilution in CA-MHB; type: cell-based
Protocol: as §1, §2

[2] = system: E. coli. K12 (ATCC 10798); test: MIC, broth microdilution in CA-MHB; type: cell-based; conditions: for MIC EC: CA-MHB
Protocol: as §1, §2

[3] = system: K. pneumoniae (carbapenem-resistant Enterobacterales) (ATCC BAA1705); test: MIC, broth microdilution in CA-MHB; type: cell-based; conditions: CA-MHB
Protocol: as §1, §2

[4] = system: Methicillin-resistant S. aureus (ATCC BAA1717); test: MIC, broth microdilution in CA-MHB; type: cell-based; conditions: for MIC MRSA: CA-MHB
Protocol: as §1, §2

[5] = system: E. faecalis OG1RF (ATCC 47077); test: MIC, broth microdilution in CA-MHB; type: cell-based; conditions: CA-MHB
Protocol: as §1, §2

E. facium (ATCC 19434) = test: MIC, broth microdilution in CA-MHB; type: cell-based; conditions: for MIC FAC: CA-MHB
Protocol: as §1, §2

[6] = system: P. aeruginosa (ATCC47085); test: MIC, broth microdilution in CA-MHB; type: cell-based; conditions: CA-MHB
Protocol: as §1, §2

[7] = system: A549 (lung epithelial cells); test: Cytotoxicity against mammalian cell line; type: cell-based
Protocol: The cytotoxicity of the TPP COEs was also tested against a mammalian cell line (A549).

[8] = phosphate-buffered saline; below 10 μg mL^−1 estimated by turbidimetric screening
Protocol: The solubility of all the TPP derivatives was determined in phosphate-buffered saline (PBS) (Table S3).

SA = test: MIC in physiological-mimicking environments (MHB); type: cell-based, S. aureus
Excerpt: (§3) The complexities of the physiological environment often influence drug activity, particularly when cations in solution are implicated in their oligomerization-dependent mechanisms of action, such as for daptomycin. Binding of free drug to plasma proteins effectively reduces the available free concentration of the drug capable of killing bacteria, resulting in lower observable activity. We tested MIC values of DM4P and DM6P in the presence of human serum albumin (40 g L^−1) and high salt concentrations (Table 4). Under these conditions, the antimicrobial activity was minimally affected by these environmental factors, with MICs remaining within a 2-fold level.

PA = test: MIC in physiological-mimicking environments (MHB); type: cell-based, P. aeruginosa
Excerpt: as §3

P. aeruginosa = test: Resistance development by serial passaging at 0.5× MIC; type: cell-based
Protocol: (§4) The non-specific action of membrane-active antibiotics lends itself to minimal development of resistance development due to the large metabolic burden involved, unlike traditional antibiotics with a well-defined enzymatic target. Based on this premise, we passaged bacteria incubated with DM6P, or ciprofloxacin (control), at 0.5× MIC to investigate the adaptation of bacteria towards external antibiotic stress. As a control, treatment of MRSA with ciprofloxacin gave rise to antibiotic-resistant mutants within 4 passages, see FIG. 4a. […] Combined with its broad spectrum of activity, this feature opens opportunities for the use of COE antimicrobial agents to address polymicrobial infections with a lower rate of emerging antibiotic resistance.

MRSA = test: as above; type: cell-based, S. aureus
Protocol: as §4

| Compound | MIC AB (A. baumanii (ATCC 17978)) | MIC SA (S. aureus (ATCC 29213)) | MIC EC [2] | MIC KP [3] | MIC MRSA [4] | MIC ([4]; towards MRSA, Table 3) | MIC FAE [5] | MIC FAC (E. facium (ATCC 19434)) | MIC PA [6] | IC50 [7] | solubility in PBS [8] | other results |
| --- | --- | --- | --- | --- | --- | --- | --- | --- | --- | --- | --- | --- |
| NCC[C@H](O)C(=O)N[C@@H]1C[C@H](N)[C@@H](O[C@H]2O[C@H](CN)[C@@H](O)[C@H](O)[C@H]2O)[C@H](O)[C@H]1O[C@H]1O[C@H](CO)[C@@H](O)[C@H](N)[C@H]1O [Amikacin, reference compound] |  |  |  |  |  |  |  |  |  |  |  | MIC [1]: 8 µg/mL (≈ 13.7 µM) |
| C[N+](C)(C)CCCCOc1ccc(/C=C/c2ccc(OCCCC[N+](C)(C)C)cc2)cc1.[I-].[I-] [Compound D4, reference compound] | >64 µg/mL | >64 µg/mL | > 64 µg/mL and 128 µg/mL | >64 µg/mL | >64 µg/mL | > 64 µg/mL | 128 µg/mL | 64 µg/mL | >64 µg/mL | 548 µg/mL |  |  |
| C(=C\c1ccc(OCCCC[P+](c2ccccc2)(c2ccccc2)c2ccccc2)cc1)/c1ccc(OCCCC[P+](c2ccccc2)(c2ccccc2)c2ccccc2)cc1.[I-].[I-] [Compound D4P] | 32 µg/mL | 4 µg/mL | 4 µg/mL and 8 µg/mL | 32 µg/mL | 2 µg/mL | 2 µg/mL | 1 µg/mL | 1 µg/mL | 16 µg/mL | 8 µg/mL | 76 µg/mL | MIC M. abscesses [1]: 32 µg/mL |
| C[N+](C)(C)CCCCCCOc1ccc(/C=C/c2ccc(OCCCCCC[N+](C)(C)C)cc2)cc1.[I-].[I-] [Compound D6, reference compound] | >64 µg/mL | 32 µg/mL | 16 µg/mL | >64 µg/mL | 32 µg/mL | 32 µg/mL | 32 µg/mL | 8 µg/mL | >64 µg/mL | 39 µg/mL |  |  |
| C(=C\c1ccc(OCCCCCC[P+](c2ccccc2)(c2ccccc2)c2ccccc2)cc1)/c1ccc(OCCCCCC[P+](c2ccccc2)(c2ccccc2)c2ccccc2)cc1.[I-].[I-] [Compound D6P] | >16 µg/mL | 2 µg/mL | 2 µg/mL | >16 µg/mL | 2 µg/mL | 2 µg/mL | 1 µg/mL | 1 µg/mL | 8 µg/mL | 13 µg/mL | 18 µg/mL | MIC M. abscesses [1]: 16 µg/mL |
| C[N+](C)(C)CCCCCCCCOc1ccc(/C=C/c2ccc(OCCCCCCCC[N+](C)(C)C)cc2)cc1.[I-].[I-] [Compound D8, reference compound] | 32 µg/mL | 8 µg/mL | 4 µg/mL | 64 µg/mL | 8 µg/mL | 8 µg/mL | 4 µg/mL | 1 µg/mL | >64 µg/mL | 11 µg/mL |  |  |
| C(=C\c1ccc(OCCCCCCCC[P+](c2ccccc2)(c2ccccc2)c2ccccc2)cc1)/c1ccc(OCCCCCCCC[P+](c2ccccc2)(c2ccccc2)c2ccccc2)cc1.[I-].[I-] [Compound D8P] |  |  |  |  |  |  |  |  |  |  | 4 µg/mL |  |
| COc1cc(/C=C/c2ccc(OCCCC[P+](c3ccccc3)(c3ccccc3)c3ccccc3)c(OC)c2)ccc1OCCCC[P+](c1ccccc1)(c1ccccc1)c1ccccc1.[I-].[I-] [DM4P] | 4 µg/mL | 2 µg/mL | 4 µg/mL | 8 µg/mL | 2 µg/mL | 2 µg/mL | 1 µg/mL | 1 µg/mL | 8 µg/mL | 9 µg/mL | 138 µg/mL | MIC CaCl2 (SA; CaCl2 1 mM): 2 µg/mL; MIC MgCl2 (SA; MgCl2 1.25mM): 2 µg/mL; MIC NaCl (SA; NaCl 300 mM): 4 µg/mL; MIC HSA (SA; human serum albumin 40 g L^−1): 2 µg/mL; MIC — (SA; no additive): 2 µg/mL; MIC M. abscesses [1]: 8 µg/mL; MIC CaCl2 (PA; CaCl2 1 mM): 8 µg/mL; MIC MgCl2 (PA; MgCl2 1.25mM): 8 µg/mL; MIC NaCl (PA; NaCl 300 mM): 4 µg/mL; MIC HSA (PA; human serum albumin 40 g L^−1): 8 µg/mL; MIC — (PA; no additive): 8 µg/mL |
| COc1cc(/C=C/c2ccc(OCCCCCC[P+](CCCO)(CCCO)CCCO)c(OC)c2)ccc1OCCCCCC[P+](CCCO)(CCCO)CCCO.[I-].[I-] [DM6THPP] | >64 µg/mL | >64 µg/mL | >64 µg/mL | >64 µg/mL | >64 µg/mL | > 64 µg/mL | >64 µg/mL | >64 µg/mL | >64 µg/mL | >1024 µg/mL |  |  |
| COc1cc(/C=C/c2ccc(OCCCCCCCC[P+](c3ccccc3)(c3ccccc3)c3ccccc3)c(OC)c2)ccc1OCCCCCCCC[P+](c1ccccc1)(c1ccccc1)c1ccccc1.[I-].[I-] [DM8P] | >4 µg/mL | >4 µg/mL | >4 µg/mL | >4 µg/mL | 4 µg/mL | 4 µg/mL | 1 µg/mL | 1 µg/mL | >4 µg/mL | 10 µg/mL | 4 µg/mL | MIC M. abscesses [1]: 64 µg/mL |
| CC(=O)NC[C@H]1CN(c2ccc(N3CCOCC3)c(F)c2)C(=O)O1 [Linezolid, reference compound] |  |  |  |  |  |  |  |  |  |  |  | MIC [1]: 8 µg/mL (≈ 23.7 µM) |
| CN[C@H](CC(C)C)C(=O)N[C@H]1C(=O)N[C@@H](CC(N)=O)C(=O)N[C@H]2C(=O)N[C@H]3C(=O)N[C@H](C(=O)N[C@H](C(=O)O)c4cc(O)cc(O)c4-c4cc3ccc4O)[C@H](O)c3ccc(c(Cl)c3)Oc3cc2cc(c3O[C@@H]2O[C@H](CO)[C@@H](O)[C@H](O)[C@H]2O[C@H]2C[C@](C)(N)[C@H](O)[C@H](C)O2)Oc2ccc(cc2Cl)[C@H]1O [Vancomycin, reference compound] |  |  |  | >128 µg/mL |  |  |  |  |  |  |  | MIC (A. baumanii (ATCC 17978); Acinetobacter baumannii, ATCC17978, read-out: MIC AB): > 128 µg/mL; MIC ([2]; Escherichia coli, ATCC10798, read-out: MIC EC): > 128 µg/mL; MIC ([4]; Staphylococcus aureus, ATCC BAA-1717 / MRSA, read-out: MIC MRSA): 1 µg/mL (≈ 0.69 µM); MIC (E. facium (ATCC 19434); read-out: MIC FAC): 1 µg/mL (≈ 0.69 µM) |
| O=C(O)c1cn(C2CC2)c2cc(N3CCNCC3)c(F)cc2c1=O [ciprofloxacin, reference compound] |  |  |  |  |  |  |  |  |  |  |  | resistance development (P. aeruginosa): this development occurred at a slower rate; passages until antibiotic-resistant mutants arise (MRSA): ≤ 4 passages |
| Polymyxin B [reference compound] | 4 µg/mL |  | 1 µg/mL | 2 µg/mL |  |  |  |  | 2 µg/mL |  |  |  |
